Test results: ChEMBL document CHEMBL1201862, “PubChem BioAssay data set” (2004)
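Dose response: 5 concentrations. Exposure: 48 h. Format: 96-well plates. Endpoint: linear interpolation; highest concentration if not reached. GI50 marks 50% less growth.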 Active and inactive are the calls of the source. Rule as the data show it: active = GI50 up to about 1.1 µM and inactive = higher.

Key:
Assay in all cases: growth of human tumour cells (NCI), 48 h
SN12C = system: SN12C
ACHN = system: ACHN
TK-10 = system: TK-10
SK-OV-3 = system: SK-OV-3
CCRF-CEM = system: CCRF-CEM
MOLT-4 = system: MOLT-4
HOP-62 = system: HOP-62
MDA-N = system: MDA-N
NCI-H460 = system: NCI-H460
NCI-H23 = system: NCI-H23
COLO 205 = system: COLO 205
DU-145 = system: DU-145
RPMI-8226 = system: RPMI-8226
786-0 = system: 786-0
NCI-H522 = system: NCI-H522
NCI-H226 = system: NCI-H226
HOP-92 = system: HOP-92
SF-295 = system: SF-295
OVCAR-4 = system: OVCAR-4
SW-620 = system: SW-620

Measured: GI50

O=C(O)CC(Nc1ccccc1)C(=O)O (stereo not given)
inactive: SN12C > 100 µM | ACHN > 100 µM | TK-10 > 100 µM | SK-OV-3 > 100 µM | CCRF-CEM > 100 µM | MOLT-4 > 100 µM | HOP-62 > 100 µM | MDA-N > 100 µM | NCI-H460 > 100 µM | NCI-H23 > 100 µM | COLO 205 > 100 µM | DU-145 > 100 µM | RPMI-8226 > 100 µM | 786-0 > 100 µM | NCI-H522 > 100 µM | NCI-H226 > 100 µM | HOP-92 > 100 µM | SF-295 > 100 µM | OVCAR-4 > 100 µM | SW-620 > 100 µM

Oc1ccccc1C(Sc1nc2ccccc2s1)Sc1nc2ccccc2s1
inactive: SN12C > 100 µM | ACHN > 100 µM | TK-10 > 100 µM | SK-OV-3 > 100 µM | CCRF-CEM 26.5 µM | MOLT-4 44.2 µM | HOP-62 > 100 µM | MDA-N > 100 µM | NCI-H460 > 100 µM | NCI-H23 58.7 µM | COLO 205 52.4 µM | DU-145 24.2 µM | RPMI-8226 32.6 µM | 786-0 > 100 µM | NCI-H522 17.6 µM | NCI-H226 36.3 µM | HOP-92 22.8 µM | SF-295 41.6 µM | OVCAR-4 76.4 µM | SW-620 > 100 µM
